Test results taken from PubChem BioAssay AID330 (DTP/NCI, 2004).
Where “and” joins values, the source holds several entries; their conditions need not be identical. Equal values may be shown once. Toxic doses and inconclusive results are not listed. How the source made its calls: active means survival T/C of 150% or more; inactive means T/C below 125% in these data.

Test system: P388 leukemia ip, CD2F1 mice, survival T/C
Assay: NCI In Vivo Anticancer Drug Screen. Data for tumor model P388 Leukemia (intraperitoneal) in CD2F1 (CDF1) mice
Conditions: endpoint: median survival time, higher = longer survival
In short: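 Mice carrying the transplanted tumor received test compound or vehicle. Survival was recorded in each group, and the value is the treated-group measurement divided by that of the vehicle-treated control group.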

[1] = dose: 50.0 mg/kg/injection, schedule: Q01DX009 (ip), vehicle: Klucel (hydroxypropylcellulose) (HPC)
[2] = dose: 100.0 mg/kg/injection, schedule: Q01DX009 (ip), vehicle: Klucel (hydroxypropylcellulose) (HPC)
[3] = dose: 200.0 mg/kg/injection, schedule: Q01DX009 (ip), vehicle: Klucel (hydroxypropylcellulose) (HPC)

Measured: T/C

O=C(N1CCN(C(=O)S(=O)(=O)c2ccccc2)CC1)S(=O)(=O)c1ccccc1
inactive: [1] 92 % of control | [2] 100 % of control | [3] 100 % of control

COc1ccccc1/C=N\NC(=O)C(=O)N/N=C\c1ccccc1OC
inactive: [1] 86 % of control | [2] 90 % of control | [3] 98 % of control

O=S(=O)(c1ccccc1)N1OC1c1ccccc1 (stereo not drawn)
inactive: dose: 50.0 mg/kg/injection, schedule: Q01DX009 (ip), vehicle: saline with Tween-80 100 % of control | dose: 60.0 mg/kg/injection, schedule: Q01DX005 (ip), vehicle: Klucel (hydroxypropylcellulose) (HPC) 104 % of control | dose: 100.0 mg/kg/injection, schedule: Q01DX009 (ip), vehicle: saline with Tween-80 86 % of control | dose: 120.0 mg/kg/injection, schedule: Q01DX005 (ip), vehicle: Klucel (hydroxypropylcellulose) (HPC) 104 % of control | dose: 240.0 mg/kg/injection, schedule: Q01DX005 (ip), vehicle: Klucel (hydroxypropylcellulose) (HPC) 99 % of control

CC(C)(C)c1cc(C(C)(C)C)c(P(C(O[Si](C)(C)C)=C(c2ccccc2)c2ccccc2)C(O[Si](C)(C)C)=C(c2ccccc2)c2ccccc2)c(C(C)(C)C)c1
inactive: dose: 60.0 mg/kg/injection, schedule: Q01DX005 (ip), vehicle: saline with Tween-80 94 % of control | dose: 120.0 mg/kg/injection, schedule: Q01DX005 (ip), vehicle: saline with Tween-80 99 % of control | dose: 240.0 mg/kg/injection, schedule: Q01DX005 (ip), vehicle: saline with Tween-80 93 % of control

CCCCCCCCCCCCCCCC(=O)NCCO
inactive: dose: 33.0 mg/kg/injection, schedule: Q04DX003 (ip), vehicle: saline with Tween-80 91 % of control | dose: 75.0 mg/kg/injection, schedule: Q04DX003 (ip), vehicle: saline with Tween-80 87 % of control

CC(C)c1oc(=O)cc2c1[C@@H](O)[C@H]1OC(=O)[C@@]3(C)[C@@H](O)[C@H]4O[C@H]4[C@@]2(C)[C@@H]13
inactive: dose: 0.94 mg/kg/injection, schedule: Q01DX001 (ip), vehicle: saline with Tween-80 105 % of control | dose: 1.0 mg/kg/injection, schedule: Q01DX009 (ip), vehicle: saline with Tween-80 104 % of control | dose: 1.88 mg/kg/injection, schedule: Q01DX001 (ip), vehicle: saline with Tween-80 105 % of control | dose: 3.75 mg/kg/injection, schedule: Q01DX001 (ip), vehicle: saline with Tween-80 101 % of control and 107 % of control | dose: 7.5 mg/kg/injection, schedule: Q01DX009 (ip), vehicle: saline with Tween-80 120 % of control | dose: 10.0 mg/kg/injection, schedule: Q01DX009 (ip), vehicle: saline with Tween-80 113 % of control and 115 % of control | dose: 15.0 mg/kg/injection, schedule: Q01DX001 (ip), vehicle: saline with Tween-80 108 % of control and 120 % of control | dose: 15.0 mg/kg/injection, schedule: Q01DX009 (ip), vehicle: saline with Tween-80 104 % of control | dose: 30.0 mg/kg/injection, schedule: Q01DX001 (ip), vehicle: saline with Tween-80 109 % of control and 113 % of control

CCc1nc(N)nc(N)c1-c1ccc(N2CC[N+](C)(C)CC2)cc1
inactive: dose: 0.24 mg/kg/injection, schedule: Q01DX005 (ip), vehicle: saline with Tween-80 99 % of control | dose: 0.48 mg/kg/injection, schedule: Q01DX005 (ip), vehicle: saline with Tween-80 101 % of control | dose: 0.94 mg/kg/injection, schedule: Q01DX005 (ip), vehicle: saline with Tween-80 105 % of control | dose: 0.96 mg/kg/injection, schedule: Q01DX005 (ip), vehicle: saline with Tween-80 119 % of control

NC(=O)C1ONC(=O)C1N (stereo not drawn)
inactive: dose: 25.0 mg/kg/injection, schedule: Q01DX009 (ip), vehicle: water 106 % of control | dose: 50.0 mg/kg/injection, schedule: Q01DX009 (ip), vehicle: water 103 % of control | dose: 100.0 mg/kg/injection, schedule: Q01DX001 (ip), vehicle: water 98 % of control | dose: 100.0 mg/kg/injection, schedule: Q01DX009 (ip), vehicle: water 104 % of control | dose: 100.0 mg/kg/injection, schedule: Q04DX003 (ip), vehicle: water 100 % of control | dose: 200.0 mg/kg/injection, schedule: Q01DX001 (ip), vehicle: water 100 % of control | dose: 200.0 mg/kg/injection, schedule: Q01DX009 (ip), vehicle: water 120 % of control | dose: 200.0 mg/kg/injection, schedule: Q04DX003 (ip), vehicle: water 101 % of control | dose: 400.0 mg/kg/injection, schedule: Q01DX001 (ip), vehicle: water 92 % of control | dose: 400.0 mg/kg/injection, schedule: Q04DX003 (ip), vehicle: water 101 % of control | dose: 600.0 mg/kg/injection, schedule: Q01DX001 (ip), vehicle: water 96 % of control

CC1C(c2ccccc2)N(C)C(c2ccccc2)C(C)C1(O)c1ccccc1 (stereo not drawn)
inactive: dose: 50.0 mg/kg/injection, schedule: Q01DX005 (ip), vehicle: saline with Tween-80 97 % of control | dose: 100.0 mg/kg/injection, schedule: Q01DX005 (ip), vehicle: saline with Tween-80 94 % of control | dose: 200.0 mg/kg/injection, schedule: Q01DX005 (ip), vehicle: saline with Tween-80 94 % of control
